Measured values: US12414960B2, “Analogues of oleuropein and oleacein and uses thereof” (Attica Sciences Ltd., priority 2020, dated 2025)

Columns and labels:
[1] = tested on: HeLa cervical cancer cells; assay: XTT cell growth assay, HeLa; assay type: cell-based, human; details: 24 h, NS = not statistically significant; for inhibition at 50 µM: Homo sapiens, HeLa, read-out: Effectiveness to suppress HeLa cell growth (cell growth inhibition)
Method in brief: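 HeLa cells in DMEM were plated and incubated 24 h, then exposed 24 h to compound at 5, 10 or 50 μM in serum-free DMEM. After 4 h with XTT reagent, formazan absorbance was read at 450 nm (630 nm reference); serum-free medium served as negative control.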

[2] = target: topoisomerase Type I; assay: Plasmid relaxation assay; assay type: biochemical; details: NS = not statistically significant
Excerpt: Topoisomerases are nuclear enzymes that play essential roles in DNA replication, transcription, chromosome segregation, and recombination. Type I topoisomerases (classified into three distinct subfamilies—Type IA, IB, and IC based on structural considerations) are enzymes which make single-stranded cuts in DNA. DNA topoisomerases are important targets of approved and experimental anti-cancer agents. The protocol described here are of assays used to assess the ability of GS compounds to inhibit topoisomerase Type I activity based on relaxation of supercoiled DNA.
Plasmid DNA is a circular double-stranded DNA molecule that is mainly found in bacteria and has the ability to self-replicate on its own. Bacteria may have one or more copies of plasmid DNA that help them survive adverse conditions, as they usually carry antibiotic resistance genes. Even with the help of plasmids being transferred from bacterium to bacterium, it is possible to transfer information that contributes to their survival.
When plasmid DNA runs in an electrophoresis gel it appears mainly in three configurations: (1) The supercoiled conformation, in which the plasmid is intact (without fractures), is its most compact form; (2) The open circular, relaxed conformation, to which it goes when single-stranded fractures are caused. This is caused either from enzymatic or other factors (e.g., free radicals) that have the ability to cause DNA breakage; (3) The linear configuration to which it goes when it has double-stranded fractures. These configurations run at different speeds in an electrophoresis gel. The smaller the configuration, the faster it penetrates the agarose pores. […]
The ability of GS compounds to inhibit topoisomerase Type I activity was assessed based on the relaxation of supercoiled DNA as previously described (Kouka, Paraskevi et al., Oxid Med Cell Longev. 2019, Article ID 1870965). […] Finally, the gels were exposed to UV, the MultiImage Light Cabinet (Alpha Innotech, San Leandro, CA, USA) was used to capture the gel photos, and the results were analyzed with the Alpha View suite. […]

[3] = tested on: MKN-45 gastric cancer cells; assay: XTT cell growth assay, MKN-45; assay type: cell-based, human; details: NS = not statistically significant; for inhibition at 50 µM: Homo sapiens, MKN-45, 24 h, read-out: Effectiveness to suppress MKN-45 cell growth (cell growth inhibition)

Compound	inhibition at 50 µM [1]	Plasmid Relaxation Assay IC50 [2]	inhibition at 50 µM [3]	Effectiveness to suppress MKN-45 cell growth (cell growth inhibition) ([3]; 50 uM, 24 h)	Effectiveness to suppress HeLa cell growth (cell growth inhibition) ([1]; 50 uM)
C/C=C1/[C@H](OC2OC(CO)C(O)C(O)C2O)OC=C(C(=O)O)[C@H]1CC(=O)OCCc1ccc(O)c(O)c1 (stereo in doubt) [GS6, (2S,4S,E)-4-(2-(3,4-dihydroxyphenethoxy)-2-oxoethyl)-3-ethylidene-2{[(2R,3S,4R,5R,6S)-3,4,5-trihydroxy-6-(hydroxymethyl)tetrahydro-2H-pyran-2-yl]oxy}-3,4dihydro-2H-pyran-5-carboxylic acid]	48%	5.94 μg extract/mL	–	–	–
C/C=C1/[C@H](O[C@@H]2O[C@H](CO)[C@@H](O)[C@H](O)[C@H]2O)OC=C(C(=O)OC)[C@H]1CC(=O)OCCc1ccc(O)c(O)c1 [GS1, oleuropein]	–	9.91 μg extract/mL	–	–	–
C/C=C(/C=O)[C@@H](CC=O)CC(=O)OCCc1ccc(O)c(O)c1 [GS17, (3S,4E)-4-formyl-3-(2-oxoethyl)-4-hexenoic acid 2-(3,4-dihydroxyphenyl)ethyl ester, reference compound]	–	9.5 μg extract/mL	–	–	–
C/C=C(/C=O)[C@@H](CC=O)CC(=O)OCCc1ccc(O)cc1 [GS19, (3S,4E)-4-formyl-3-(2-oxoethyl)-4-hexenoic acid 2-(4-hydroxyphenyl)ethyl ester, reference compound]	79.1%	–	44.4%	–	–
C/C=C(/C=O)[C@@H](CC=O)CC(=O)OCCOc1ccccc1 [GS24, (3S,4E)-4-formyl-3-(2-oxoethyl)-4-hexenoic acid 2-phenoxyethyl ester]	66.6%	–	35.4%	–	–
C/C=C(/C=O)[C@@H](CC=O)CC(=O)SCCc1ccccc1 [GS27, S-phenethyl (3S,4E)-4-formyl-3-(2-oxoethyl)hex-4-enethioate]	39%	–	–	–	–
C/C=C(/C=O)[C@@H](CC=O)CC(=O)OCCCSC [GS28, (3S,4E)-4-formyl-3-(2-oxoethyl)-4-hexenoic acid 3-(methylthio)propyl ester]	81%	–	95%	highly effective	best efficacy
